The values below come from patent publication US20070276011A1, “Plasminogen Activator Inhibitor-1 Inhibitor” (priority 2003, published 2007).

Where only a bound is given, the exact number is not on record here.

The target in this assay is recombinant human PAI-1 (Homo sapiens, UniProt P05121). The experiment in a line: PAI-1 inhibitory activity, Test Method A (tPA fluorogenic substrate, Tris buffer pH8.0, 37 C). The assay is classed as biochemical. To be noted: test compound 25 μM; Test Method A. Here is the method: To this solution, 50 μL solution of 400 μM fluogenic substrate for tPA (Pyr-Gly-Arg-MCA, Peptide Institute, Inc.) adjusted with the same buffer was added, and reacted for 30 minutes at 37° C. The reaction was stopped by adding 50 μL of 2% acetic acid. Fluorescence was measured at the excitation wavelength=360 nm, emission wavelength=460 or 465 nm using a microplate reader (SPECTRAFLUOR or GENios) by TECAN. The fluorescence intensities in the presence of the PAI-1 as the control (DMSO) or in the absence of the PAI-1 (tPA alone) were taken as 100% and 0% of PAI-1 activities, respectively, and inhibitory ratios of PAI-1 activities in the presence of the test compound were obtained.
Sequence of recombinant human PAI-1 (P05121 24-402): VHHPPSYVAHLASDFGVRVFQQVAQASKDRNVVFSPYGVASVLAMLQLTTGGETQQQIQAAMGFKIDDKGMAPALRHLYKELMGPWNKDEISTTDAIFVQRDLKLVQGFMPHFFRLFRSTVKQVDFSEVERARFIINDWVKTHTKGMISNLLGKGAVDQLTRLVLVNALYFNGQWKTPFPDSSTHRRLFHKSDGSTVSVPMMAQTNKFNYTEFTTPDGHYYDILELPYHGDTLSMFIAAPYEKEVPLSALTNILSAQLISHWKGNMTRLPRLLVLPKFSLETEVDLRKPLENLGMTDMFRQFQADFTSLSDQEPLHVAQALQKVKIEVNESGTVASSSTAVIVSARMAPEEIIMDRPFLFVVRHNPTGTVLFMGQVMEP
<Composition of the Tris Buffer (pH8.0)>
On to `CC1=NN(c2cccc(Cl)c2)C(=O)C1=Cc1cc(O)c(O)c(O)c1` [compound 123], for which the “Inhibitory Ratio at 25 μM (%)” value worked out at 67%. `COc1cc(C=C2C(=O)N(c3cccc(Cl)c3)N=C2C)cc(O)c1O` [compound 124]: the “Inhibitory Ratio at 25 μM (%)” value was found to be 33%. Take `Cc1cccc(N2N=C(C(C)C)C(=Cc3ccc(O)c(O)c3)C2=O)c1` [compound 125, 4-(3,4-Dihydroxybenzylidene)-1-(3-methylphenyl)-3-isopropyl-2-pyrazolin-5-one]: the “Inhibitory Ratio at 25 μM (%)” value is given as 38%. In the case of `COc1cccc(N2N=C(C(C)C)C(=Cc3ccc(O)c(O)c3)C2=O)c1` [compound 126] it was 44%; in that of `O=C1C(=Cc2ccc(O)c(O)c2)C(c2ccccc2)=NN1c1cc(Cl)cc(Cl)c1` [compound 129, 4-(3,4-Dihydroxybenzylidene)-1-(3,5-dichlorophenyl)-3-phenyl-2-pyrazolin-5-one], over 99%. Next, `CC(C)C1=NN(c2cc(Cl)cc(Cl)c2)C(=O)C1=Cc1cc(O)c(O)c(O)c1` [compound 130]: over 99%; `O=C1C(=Cc2cc(O)c(O)c(O)c2)C(c2ccccc2)=NN1c1cc(Cl)cc(Cl)c1` [compound 131]: over 99%; `CCOC1=NN(c2ccc([N+](=O)[O-])cc2)C(=O)C1=Cc1cc(O)c(O)c(O)c1` [compound 132]: over 99%. Next, `CC(C)(C)C1=NN(c2ccccc2)C(=O)C1=Cc1ccc(O)c(O)c1` [compound 133]: 55%; `CC(C)C1=NN(c2ccc(Cl)c(Cl)c2)C(=O)C1=Cc1cc(O)c(O)c(O)c1` [compound 134, 4-(3,4,5-Trihydroxybenzylidene)-1-(3,4-dichlorophenyl)-3-isopropyl-2-pyrazolin-5-one]: over 99%. In the case of `CC1=NN(c2ccc([N+](=O)[O-])cc2)C(=O)C1=Cc1cc(O)c(O)c(O)c1` [compound 135], the “Inhibitory Ratio at 25 μM (%)” value is reported as 94%.

Consider `O=C1C(=Cc2ccc(O)c(O)c2)C(C(F)(F)F)=NN1c1cccc([N+](=O)[O-])c1` [compound 137], for which the “Inhibitory Ratio at 25 μM (%)” value is over 99%. In the case of `CC(C)(C)C1=NN(c2cc(Cl)cc(Cl)c2)C(=O)C1=Cc1ccc(O)c(O)c1` [compound 138, 4-(3,4-Dihydroxybenzylidene)-1-(3,5-dichlorophenyl)-3-(tert-butyl)-2-pyrazolin-5-one] it was over 99%; in that of `CC(C)(C)C1=NN(c2cc(Cl)cc(Cl)c2)C(=O)C1=Cc1cc(O)c(O)c(O)c1` [compound 139], over 99%.

Regarding `CC(C)C1=NN(c2ccc(Cl)c(Cl)c2)C(=O)C1=Cc1ccc(O)c(O)c1` [compound 140], the “Inhibitory Ratio at 25 μM (%)” value is listed as over 99%. In the case of `CC(C)C1=NN(c2cc(Cl)cc(Cl)c2)C(=O)C1=Cc1ccc(O)c(O)c1O` [compound 142] it was over 99%; in that of `CC1=NN(c2cc(Cl)cc(Cl)c2)C(=O)C1=Cc1cc(O)c(O)c(O)c1` [compound 143], over 99%; in that of `CC1=NN(c2ccc(Cl)c(Cl)c2)C(=O)C1=Cc1cc(O)c(O)c(O)c1` [compound 144, 4-(3,4,5-Trihydroxybenzylidene)-1-(3,4-dichlorophenyl)-3-methyl-2-pyrazolin-5-one], 53%. In the case of `O=C1C(=Cc2cc(O)c(O)c(O)c2)C(c2ccccc2)=NN1c1ccc(Cl)c(Cl)c1` [compound 146] it was over 99%; in that of `O=C1C(=Cc2ccc(O)c(O)c2)C(C(F)(F)F)=NN1c1cc(Cl)cc(Cl)c1` [compound 147, 4-(3,4-Dihydroxybenzylidene)-1-(3,5-dichlorophenyl)*3-trifluoromethyl-2-pyrazolin-5-one], over 99%; in that of `O=C1C(=Cc2ccc(O)c(O)c2O)C(c2ccccc2)=NN1c1ccc(Cl)c(Cl)c1` [compound 148], 62%. Regarding `O=C1C(=Cc2cc(O)c(O)c(O)c2)C(C(F)(F)F)=NN1c1cc(Cl)cc(Cl)c1` [compound 149], the “Inhibitory Ratio at 25 μM (%)” value was over 99%. As for `O=C1C(=Cc2ccc(O)c(O)c2O)C(C(F)(F)F)=NN1c1cc(Cl)cc(Cl)c1` [compound 150], the “Inhibitory Ratio at 25 μM (%)” value is reported as over 99%. Take `O=C1C(=Cc2cc(O)c(O)cc2O)C(C(F)(F)F)=NN1c1cc(Cl)cc(Cl)c1` [compound 151]: the “Inhibitory Ratio at 25 μM (%)” value was over 99%.

In the case of `CC1=NN(c2ccc(Cl)c(Cl)c2)C(=O)C1=Cc1ccc(O)c(O)c1` [compound 152], the “Inhibitory Ratio at 25 μM (%)” value is on record as 89%. In the case of `COC(=O)c1cccc(N2N=C(c3ccccc3)C(=Cc3ccc(O)c(O)c3)C2=O)c1` [compound 154, 4-(3,4-Dihydroxybenzylidene)-1-[3-(methoxycarbonyl)phenyl]-3-phenyl-2-pyrazolin-5-one] it was over 99%.

`CCOC1=NN(c2ccc([N+](=O)[O-])cc2)C(=O)C1=Cc1ccc(O)c(O)c1O` [compound 155]: the “Inhibitory Ratio at 25 μM (%)” value is listed as 39%.

As for `Cc1cccc(N2N=C(C(C)C)C(=Cc3cc(O)c(O)c(O)c3)C2=O)c1` [compound 157], the “Inhibitory Ratio at 25 μM (%)” value worked out at 37%. As for `CC1=NN(c2cccc(Cl)c2)C(=O)C1=Cc1cc(O)c(O)cc1O` [compound 158], the “Inhibitory Ratio at 25 μM (%)” value came out at 72%. In the case of `CCOc1cc(C=C2C(=O)N(c3cccc(C(F)(F)F)c3)N=C2C)ccc1OCC(=O)O` [compound 159] it was 32%.

For `COC(=O)c1cccc(-c2ccc(C=C3C(=O)N(c4ccc(F)cc4)N=C3O)o2)c1` [compound 160], the “Inhibitory Ratio at 25 μM (%)” value amounted to 50%. On to `O=C(O)c1cccc(N2N=C(C(F)(F)F)C(=Cc3ccc(-c4cc(Cl)cc(Cl)c4)o3)C2=O)c1` [compound 162], for which the “Inhibitory Ratio at 25 μM (%)” value is reported as 56%. For `CC1=NN(c2ccccc2)C(=O)C1=Cc1ccc(-c2cc(C(=O)O)ccc2Cl)o1` [compound 163], the “Inhibitory Ratio at 25 μM (%)” value is reported as 54%. `O=C1C(=Cc2ccc(-c3cc([N+](=O)[O-])ccc3O)o2)C(O)=NN1c1cccc(Cl)c1` [compound 165]: the “Inhibitory Ratio at 25 μM (%)” value was 29%. Next, `COC(=O)c1cccc(N2N=C(C(F)(F)F)C(=Cc3ccc(-c4cc(Cl)cc(Cl)c4)o3)C2=O)c1` [compound 166, 4-{[5-(3,5-Dichlorophenyl)furan-2-yl]methylene}-1-[3-(methoxycarbonyl)phenyl]-3-trifluoromethyl-2-pyrazolin-5-one]: over 99%; `O=C1C(=Cc2ccc(-c3cc(Cl)cc(Cl)c3)o2)C(c2ccccc2)=NN1c1cccc([N+](=O)[O-])c1` [compound 167, 4-{[5-(3,5-Dichlorophenyl)furan-2-yl]methylene}-1-(3-nitrophenyl)-3-phenyl-2-pyrazolin-5-one]: 50%; `C=CCOc1ccc(C=C2C(=O)N(c3ccc(Cl)c(C(=O)O)c3)N=C2C)cc1OC` [compound 169]: 27%. Consider `COc1cc(C=C2C(=O)N(c3ccc(Cl)c(C(=O)O)c3)N=C2C)ccc1OCc1ccccc1` [compound 170], for which the “Inhibitory Ratio at 25 μM (%)” value is over 99%.

On to `CC1=NN(c2cccc(C(=O)O)c2)C(=O)C1=Cc1ccccc1` [compound 172], for which the “Inhibitory Ratio at 25 μM (%)” value is on record as 32%. In the case of `CC1=NN(c2cccc(C(=O)O)c2)C(=O)C1=Cc1cc(Br)ccc1OCc1ccccc1` [compound 173] it was 66%. Next, `COc1cc(C=C2C(=O)N(c3cccc(C(=O)O)c3)N=C2C)cc(Br)c1OCC(=O)NCc1ccccc1` [compound 174]: 62%; `O=C(O)c1cccc(N2N=C(c3ccccc3)C(=Cc3ccccc3)C2=O)c1` [compound 175]: 35%; `O=C(O)c1cccc(N2N=C(C(F)(F)F)C(=Cc3ccc(-c4cc(Cl)cc(Cl)c4)o3)C2=O)c1` [compound 176]: 65%. In the case of `COC(=O)c1cccc(N2N=C(C(F)(F)F)C(=Cc3ccc(-c4cc(C(F)(F)F)cc(C(F)(F)F)c4)o3)C2=O)c1` [compound 177, 4-({5-[3,5-Bis(trifluoromethyl)phenyl]furan-2-yl}methylene)-1-(3-methoxycarbonylphenyl)-3-trifluoromethyl-2-pyrazolin-5-one] it was 86%; in that of `COC(=O)c1cccc(N2N=C(C(F)(F)F)C(=Cc3ccc(SCCN(C)C)s3)C2=O)c1` [compound 178], 40%; in that of `O=C(O)c1cccc(N2N=C(C(F)(F)F)C(=Cc3ccc(-c4cc(C(F)(F)F)cc(C(F)(F)F)c4)o3)C2=O)c1` [compound 179], 62%. `COC(=O)c1cccc(N2N=C(c3ccccc3)C(=Cc3ccc(-c4cc(Cl)cc(Cl)c4)o3)C2=O)c1` [compound 180]: the “Inhibitory Ratio at 25 μM (%)” value worked out at 90%. Regarding `COC(=O)c1cccc(N2N=C(C(F)(F)F)C(=Cc3ccc(-c4cc(Cl)cc(Cl)c4)s3)C2=O)c1` [compound 181], the “Inhibitory Ratio at 25 μM (%)” value turned out to be 23%. Next, `O=C1C(=Cc2ccc(-c3cc(Cl)cc(Cl)c3)o2)C(C(F)(F)F)=NN1c1cccc([N+](=O)[O-])c1` [compound 182]: 90%.

As for `O=C(O)c1cccc(N2N=C(C(F)(F)F)C(=Cc3ccc(-c4cc(Cl)cc(Cl)c4)s3)C2=O)c1` [compound 184], the “Inhibitory Ratio at 25 μM (%)” value is recorded as 43%. Next, `CCOC(=O)C1=NN(c2cccc(C(=O)OCC)c2)C(=O)C1=Cc1ccc(-c2cc(Cl)cc(Cl)c2)o1` [compound 185]: 89%. Turning to `CC1=NN(c2ccc(S(N)(=O)=O)cc2)C(=O)C1=Cc1ccc(-c2cccc(Cl)c2)o1` [compound 186], the “Inhibitory Ratio at 25 μM (%)” value is given as 30%.
